Results taken from PMC9150124, “Design of a Potent, Selective, and Brain-Penetrant Inhibitor of Wnt-Deactivating Enzyme Notum by Optimization of a Crystallographic Fragment Hit” (Journal of Medicinal Chemistry, 2022).

What was measured:
[1] = molecular target: kinase named in conditions (Homo sapiens, UniProt Q13188); test: SelectScreen kinase profiling, SSBK ZLyte SP Technology; type: biochemical; details: STK3 (MST2), 10 μM
Description: (§1) Kinase selectivity screening was performed by Thermo Fisher Scientific (Paisley, U.K.) in their SelectScreen Biochemical Kinase Profiling Service. Assay information and data are presented in the Supporting Information.
(§2) Kinase selectivity screening was performed by ThermoFisher Scientific (Paisley, U.K.) in their SelectScreenTM
(§3) Biochemical Kinase Profiling service .

[2] = molecular target: kinase named in conditions (Homo sapiens, UniProt O00311); test: SelectScreen kinase profiling, SSBK LanthaScreen Binding SP Technology; details: CDC7/DBF4, 10 μM
Description: as §1, §2, §3
(§4) Illustration reproduced courtesy of Cell Signaling technology, Inc.
(§5) (B) Illustration of phylogenetic tree of kinases screened.

[3] = molecular target: kinase named in conditions (Homo sapiens, UniProt O00444); test: as above; details: PLK4, 10 μM
Description: as §1, §2, §3, §4, §5

[4] = molecular target: kinase named in conditions (Homo sapiens, UniProt O43353); test: as above; details: RIPK2, 10 μM
Description: as §1, §2, §3, §4, §5

[5] = molecular target: kinase named in conditions (Homo sapiens, UniProt O75460); test: as above; details: ERN1, 10 μM
Description: as §1, §2, §3, §4, §5

[6] = molecular target: kinase named in conditions (Homo sapiens, UniProt O75716); test: as above; details: STK16 (PKL12), 10 μM
Description: as §1, §2, §3, §4, §5

[7] = molecular target: kinase named in conditions (Homo sapiens, UniProt P10721, A829P); test: as above; details: KIT A829P, 10 μM
Description: as §1, §2, §3, §4, §5

[8] = molecular target: kinase named in conditions (Homo sapiens, UniProt P10721, D816V); test: as above; details: KIT D816V, 10 μM
Description: as §1, §2, §3, §4, §5

[9] = molecular target: kinase named in conditions (Homo sapiens, UniProt P22607, G697C); test: as above; details: FGFR3 G697C, 10 μM
Description: as §1, §2, §3, §4, §5

[10] = molecular target: kinase named in conditions (Homo sapiens, UniProt P22694); test: as above; details: PRKACB (PRKAC beta), 10 μM
Description: as §1, §2, §3, §4, §5

[11] = molecular target: kinase named in conditions (Homo sapiens, UniProt P27037); test: as above; details: ACVR2A, 10 μM
Description: as §1, §2, §3, §4, §5

[12] = molecular target: kinase named in conditions (Homo sapiens, UniProt P36894); test: as above; details: BMPR1A (ALK3), 10 μM
Description: as §1, §2, §3, §4, §5

[13] = molecular target: kinase named in conditions (Homo sapiens, UniProt P49336); test: as above; details: CDK8/cyclin C, 10 μM
Description: as §1, §2, §3, §4, §5

[14] = molecular target: kinase named in conditions (Homo sapiens, UniProt P53667); test: as above; details: LIMK1, 10 μM
Description: as §1, §2, §3, §4, §5

[15] = molecular target: kinase named in conditions (Homo sapiens, UniProt P53671); test: as above; details: LIMK2, 10 μM
Description: as §1, §2, §3, §4, §5

[16] = molecular target: kinase named in conditions (Homo sapiens, UniProt P57059); test: as above; details: SIK1, 10 μM
Description: as §1, §2, §3, §4, §5

[17] = molecular target: kinase named in conditions (Homo sapiens, UniProt Q00536); test: as above; details: CDK16 (PCTK1)/cyclin Y, 10 μM
Description: as §1, §2, §3, §4, §5

[18] = molecular target: kinase named in conditions (Homo sapiens, UniProt Q02750, S218D/S222D); test: as above; details: MAP2K1 (MEK1) S218D S222D, 10 μM
Description: as §1, §2, §3, §4, §5

[19] = molecular target: kinase named in conditions (Homo sapiens, UniProt Q04771, R206H); test: as above; details: ACVR1 (ALK2) R206H, 10 μM
Description: as §1, §2, §3, §4, §5

[20] = molecular target: kinase named in conditions (Homo sapiens, UniProt Q13163); test: as above; details: MAP2K5 (MEK5), 10 μM
Description: as §1, §2, §3, §4, §5

[21] = molecular target: kinase named in conditions (Homo sapiens, UniProt Q15208); test: as above; details: STK38 (NDR), 10 μM
Description: as §1, §2, §3, §4, §5

[22] = molecular target: kinase named in conditions (Homo sapiens, UniProt Q16832); test: as above; details: DDR2, 10 μM
Description: as §1, §2, §3, §4, §5

[23] = molecular target: kinase named in conditions (Homo sapiens, UniProt Q16832, T654M); test: as above; details: DDR2 T654M, 10 μM
Description: as §1, §2, §3, §4, §5

[24] = molecular target: kinase named in conditions (Homo sapiens, UniProt Q86Y07); test: as above; details: VRK2, 10 μM
Description: as §1, §2, §3, §4, §5

[25] = molecular target: kinase named in conditions (Homo sapiens, UniProt Q8NI60); test: as above; details: ADCK3, 10 μM
Description: as §1, §2, §3, §4, §5

[26] = molecular target: kinase named in conditions (Homo sapiens, UniProt Q99558); test: as above; details: MAP3K14 (NIK), 10 μM
Description: as §1, §2, §3, §4, §5

[27] = molecular target: kinase named in conditions (Homo sapiens, UniProt Q9H2G2); test: as above; details: SLK, 10 μM
Description: as §1, §2, §3, §4, §5

[28] = molecular target: kinase named in conditions (Homo sapiens, UniProt Q9H2K8); test: as above; details: TAOK3 (JIK), 10 μM
Description: as §1, §2, §3, §4, §5

[29] = molecular target: kinase named in conditions (Homo sapiens, UniProt Q9HAZ1); test: as above; details: CLK4, 10 μM
Description: as §1, §2, §3, §4, §5

[30] = molecular target: kinase named in conditions (Homo sapiens, UniProt Q9UIK4); test: as above; details: DAPK2, 10 μM
Description: as §1, §2, §3, §4, §5

[31] = molecular target: kinase named in conditions (Homo sapiens, UniProt Q9UM73, C1156Y); test: as above; details: ALK C1156Y, 10 μM
Description: as §1, §2, §3, §4, §5

[32] = molecular target: kinase named in conditions (Homo sapiens, UniProt Q9UM73, L1196M); test: as above; details: ALK L1196M, 10 μM
Description: as §1, §2, §3, §4, §5

[33] = tested on: kinase named in conditions; test: as above
Description: as §1, §2, §3, §4, §5

[34] = Stability in rat liver microsomes

Chain of kinase named in conditions (Homo sapiens, UniProt P49336) (P49336 whole entry): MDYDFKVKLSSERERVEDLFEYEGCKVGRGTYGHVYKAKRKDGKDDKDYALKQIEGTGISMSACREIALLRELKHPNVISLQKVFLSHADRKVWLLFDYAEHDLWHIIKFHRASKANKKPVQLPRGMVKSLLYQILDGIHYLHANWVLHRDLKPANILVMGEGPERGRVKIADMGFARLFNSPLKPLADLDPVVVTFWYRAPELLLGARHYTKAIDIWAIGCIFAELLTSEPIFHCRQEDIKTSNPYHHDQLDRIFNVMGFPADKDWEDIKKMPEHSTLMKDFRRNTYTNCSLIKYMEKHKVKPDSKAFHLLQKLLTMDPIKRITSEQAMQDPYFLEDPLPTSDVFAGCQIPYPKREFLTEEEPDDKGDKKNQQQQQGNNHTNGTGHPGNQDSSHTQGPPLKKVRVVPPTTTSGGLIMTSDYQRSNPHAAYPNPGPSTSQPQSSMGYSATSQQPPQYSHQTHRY
Chain of kinase named in conditions (Homo sapiens, UniProt Q9H2G2) (Q9H2G2 whole entry): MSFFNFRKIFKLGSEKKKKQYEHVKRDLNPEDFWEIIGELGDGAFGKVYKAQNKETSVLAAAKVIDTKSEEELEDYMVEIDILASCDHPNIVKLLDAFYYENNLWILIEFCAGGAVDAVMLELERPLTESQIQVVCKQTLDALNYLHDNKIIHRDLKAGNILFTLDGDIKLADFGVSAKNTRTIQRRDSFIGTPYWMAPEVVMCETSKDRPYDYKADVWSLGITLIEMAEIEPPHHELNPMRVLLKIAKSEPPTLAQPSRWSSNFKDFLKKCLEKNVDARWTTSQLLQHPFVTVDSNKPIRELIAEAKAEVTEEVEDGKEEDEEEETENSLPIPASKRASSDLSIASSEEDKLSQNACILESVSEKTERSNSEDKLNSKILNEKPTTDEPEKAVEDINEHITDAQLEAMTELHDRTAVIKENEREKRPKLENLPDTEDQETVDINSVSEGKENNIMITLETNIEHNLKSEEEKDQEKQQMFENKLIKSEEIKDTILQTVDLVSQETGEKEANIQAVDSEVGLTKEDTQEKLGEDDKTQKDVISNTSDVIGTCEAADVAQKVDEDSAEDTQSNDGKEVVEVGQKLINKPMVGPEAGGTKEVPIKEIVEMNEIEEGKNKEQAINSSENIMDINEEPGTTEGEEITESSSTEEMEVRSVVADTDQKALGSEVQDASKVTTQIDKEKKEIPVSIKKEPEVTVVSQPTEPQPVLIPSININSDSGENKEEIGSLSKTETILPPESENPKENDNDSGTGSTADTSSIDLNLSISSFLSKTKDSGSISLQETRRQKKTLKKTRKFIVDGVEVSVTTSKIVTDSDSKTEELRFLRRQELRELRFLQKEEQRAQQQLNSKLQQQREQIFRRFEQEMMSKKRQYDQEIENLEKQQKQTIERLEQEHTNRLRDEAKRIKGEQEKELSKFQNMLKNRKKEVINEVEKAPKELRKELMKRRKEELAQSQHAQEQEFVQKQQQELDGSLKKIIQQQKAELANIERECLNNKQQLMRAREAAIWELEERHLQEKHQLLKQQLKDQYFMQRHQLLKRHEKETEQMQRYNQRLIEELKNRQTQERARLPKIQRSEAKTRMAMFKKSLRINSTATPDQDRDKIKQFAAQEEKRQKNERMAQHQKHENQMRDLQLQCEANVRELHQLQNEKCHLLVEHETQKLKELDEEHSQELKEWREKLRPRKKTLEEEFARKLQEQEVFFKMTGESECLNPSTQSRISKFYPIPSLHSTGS
Chain of kinase named in conditions (Homo sapiens, UniProt Q9HAZ1) (Q9HAZ1 whole entry): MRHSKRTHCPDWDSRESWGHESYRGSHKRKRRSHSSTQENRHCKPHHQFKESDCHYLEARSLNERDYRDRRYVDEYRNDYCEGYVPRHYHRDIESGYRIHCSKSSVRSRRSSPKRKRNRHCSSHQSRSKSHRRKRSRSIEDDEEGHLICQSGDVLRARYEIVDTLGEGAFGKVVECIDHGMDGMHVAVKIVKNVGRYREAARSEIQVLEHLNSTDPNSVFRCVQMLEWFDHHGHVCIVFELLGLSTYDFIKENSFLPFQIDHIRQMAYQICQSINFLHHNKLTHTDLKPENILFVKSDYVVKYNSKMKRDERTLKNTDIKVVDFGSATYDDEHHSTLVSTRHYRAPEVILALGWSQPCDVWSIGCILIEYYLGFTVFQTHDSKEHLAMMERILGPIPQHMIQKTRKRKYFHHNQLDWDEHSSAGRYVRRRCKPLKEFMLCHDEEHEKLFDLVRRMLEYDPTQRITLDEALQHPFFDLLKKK
Chain of kinase named in conditions (Homo sapiens, UniProt Q02750, S218D/S222D) (Q02750 whole entry S218D/S222D): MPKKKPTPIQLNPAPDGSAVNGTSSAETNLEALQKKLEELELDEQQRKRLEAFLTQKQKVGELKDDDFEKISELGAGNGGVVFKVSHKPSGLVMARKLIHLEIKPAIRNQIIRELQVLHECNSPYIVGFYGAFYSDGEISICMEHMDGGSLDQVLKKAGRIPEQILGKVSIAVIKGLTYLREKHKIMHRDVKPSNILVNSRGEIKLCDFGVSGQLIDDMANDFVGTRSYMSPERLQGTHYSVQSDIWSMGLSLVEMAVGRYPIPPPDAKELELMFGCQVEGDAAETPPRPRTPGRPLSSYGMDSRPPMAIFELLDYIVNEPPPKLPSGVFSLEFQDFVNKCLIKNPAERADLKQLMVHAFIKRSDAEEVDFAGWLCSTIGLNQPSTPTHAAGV
Chain of kinase named in conditions (Homo sapiens, UniProt P53671) (P53671 whole entry): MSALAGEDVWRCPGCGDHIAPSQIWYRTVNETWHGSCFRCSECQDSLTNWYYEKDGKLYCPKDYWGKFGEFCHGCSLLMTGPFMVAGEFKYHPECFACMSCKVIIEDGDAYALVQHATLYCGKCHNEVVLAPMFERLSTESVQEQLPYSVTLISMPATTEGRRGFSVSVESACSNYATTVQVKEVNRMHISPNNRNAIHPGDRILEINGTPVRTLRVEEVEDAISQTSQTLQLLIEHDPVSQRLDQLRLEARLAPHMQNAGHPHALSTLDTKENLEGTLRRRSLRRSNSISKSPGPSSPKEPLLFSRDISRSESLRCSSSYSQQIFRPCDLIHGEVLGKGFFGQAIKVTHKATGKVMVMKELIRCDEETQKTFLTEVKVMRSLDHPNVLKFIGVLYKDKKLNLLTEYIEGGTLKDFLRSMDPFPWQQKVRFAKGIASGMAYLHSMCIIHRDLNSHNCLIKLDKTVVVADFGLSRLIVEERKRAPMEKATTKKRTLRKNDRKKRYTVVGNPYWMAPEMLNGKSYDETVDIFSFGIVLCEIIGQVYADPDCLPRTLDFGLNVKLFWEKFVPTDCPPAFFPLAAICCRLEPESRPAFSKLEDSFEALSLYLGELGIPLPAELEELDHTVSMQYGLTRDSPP
Chain of kinase named in conditions (Homo sapiens, UniProt Q99558) (Q99558 whole entry): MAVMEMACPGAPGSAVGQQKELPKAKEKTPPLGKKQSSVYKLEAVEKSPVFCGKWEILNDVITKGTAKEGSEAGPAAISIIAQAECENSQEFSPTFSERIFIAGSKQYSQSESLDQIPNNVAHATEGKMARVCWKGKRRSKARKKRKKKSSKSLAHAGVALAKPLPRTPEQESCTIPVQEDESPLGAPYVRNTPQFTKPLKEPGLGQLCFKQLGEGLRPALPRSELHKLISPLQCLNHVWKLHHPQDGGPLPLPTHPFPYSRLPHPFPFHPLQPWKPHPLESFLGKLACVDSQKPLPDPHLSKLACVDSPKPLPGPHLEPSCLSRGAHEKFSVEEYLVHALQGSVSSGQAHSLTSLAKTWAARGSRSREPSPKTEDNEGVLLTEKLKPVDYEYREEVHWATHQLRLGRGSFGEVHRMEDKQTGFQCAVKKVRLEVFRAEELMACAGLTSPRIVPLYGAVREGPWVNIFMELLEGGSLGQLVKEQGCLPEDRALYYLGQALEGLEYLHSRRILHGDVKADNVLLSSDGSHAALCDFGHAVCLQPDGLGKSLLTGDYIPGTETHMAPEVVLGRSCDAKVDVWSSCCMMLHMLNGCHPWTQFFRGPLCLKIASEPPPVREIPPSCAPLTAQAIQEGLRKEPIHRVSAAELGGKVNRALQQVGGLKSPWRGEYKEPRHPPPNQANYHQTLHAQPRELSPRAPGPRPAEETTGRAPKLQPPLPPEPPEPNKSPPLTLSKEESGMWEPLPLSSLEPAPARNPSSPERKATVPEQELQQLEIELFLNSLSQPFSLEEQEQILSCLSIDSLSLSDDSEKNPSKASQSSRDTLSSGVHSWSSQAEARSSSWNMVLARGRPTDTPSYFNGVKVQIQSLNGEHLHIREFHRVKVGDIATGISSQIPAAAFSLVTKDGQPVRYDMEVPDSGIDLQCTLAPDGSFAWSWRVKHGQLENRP
Chain of kinase named in conditions (Homo sapiens, UniProt Q9UIK4) (Q9UIK4 whole entry): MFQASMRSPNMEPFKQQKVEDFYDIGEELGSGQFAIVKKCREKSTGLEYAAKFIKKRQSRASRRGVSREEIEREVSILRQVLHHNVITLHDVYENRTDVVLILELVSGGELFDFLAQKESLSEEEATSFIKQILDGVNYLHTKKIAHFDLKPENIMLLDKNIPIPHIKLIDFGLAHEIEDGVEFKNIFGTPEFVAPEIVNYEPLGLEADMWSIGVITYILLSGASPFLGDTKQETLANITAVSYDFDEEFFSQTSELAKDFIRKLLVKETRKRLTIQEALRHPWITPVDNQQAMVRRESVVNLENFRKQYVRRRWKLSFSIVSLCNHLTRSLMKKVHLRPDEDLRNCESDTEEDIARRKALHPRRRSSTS
Chain of kinase named in conditions (Homo sapiens, UniProt P36894) (P36894 24-532): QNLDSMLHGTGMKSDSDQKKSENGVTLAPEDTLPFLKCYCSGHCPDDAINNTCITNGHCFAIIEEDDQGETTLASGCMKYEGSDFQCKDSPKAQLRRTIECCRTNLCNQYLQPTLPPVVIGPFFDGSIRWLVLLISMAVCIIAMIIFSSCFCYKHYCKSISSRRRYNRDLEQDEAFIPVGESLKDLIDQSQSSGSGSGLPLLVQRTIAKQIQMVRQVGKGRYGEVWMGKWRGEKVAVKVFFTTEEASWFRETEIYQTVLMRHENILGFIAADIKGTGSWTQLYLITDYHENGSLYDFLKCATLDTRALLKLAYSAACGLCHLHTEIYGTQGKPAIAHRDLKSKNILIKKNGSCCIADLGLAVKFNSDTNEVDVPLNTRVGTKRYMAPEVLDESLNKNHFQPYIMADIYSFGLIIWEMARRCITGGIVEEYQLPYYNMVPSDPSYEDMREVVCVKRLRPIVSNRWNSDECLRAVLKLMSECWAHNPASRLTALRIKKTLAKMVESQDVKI

## FC(F)(F)c1c(Cl)ccc(-n2ccnn2)c1Cl [8l, 1-(2,4-Dichloro-3-(trifluoromethyl)phenyl)-1H-1,2,3-triazole]
[1]
  inhibition at 10 µM: -9%
[2]
  inhibition at 10 µM: -15%
[3]
  inhibition at 10 µM: -1%
[4]
  inhibition at 10 µM: 5%
[5]
  inhibition at 10 µM: -4%
[6]
  inhibition at 10 µM: 17%
[7]
  inhibition at 10 µM: -3%
[8]
  inhibition at 10 µM: 26%
[9]
  inhibition at 10 µM: -1%
[10]
  inhibition at 10 µM: 1%
[11]
  inhibition at 10 µM: 4%
[12]
  inhibition at 10 µM: 6%
[13]
  inhibition at 10 µM: 18%
[14]
  inhibition at 10 µM: 6%
[15]
  inhibition at 10 µM: -3%
[16]
  inhibition at 10 µM: -3%
[17]
  inhibition at 10 µM: 8%
[18]
  inhibition at 10 µM: 2%
[19]
  inhibition at 10 µM: 0%
[20]
  inhibition at 10 µM: -6%
[21]
  inhibition at 10 µM: -8%
[22]
  inhibition at 10 µM: -3%
[23]
  inhibition at 10 µM: -9%
[24]
  inhibition at 10 µM: -11%
[25]
  inhibition at 10 µM: 12%
[26]
  inhibition at 10 µM: 16%
[27]
  inhibition at 10 µM: 4%
[28]
  inhibition at 10 µM: -5%
[29]
  inhibition at 10 µM: 3%
[30]
  inhibition at 10 µM: 23%
[31]
  inhibition at 10 µM: 4%
[32]
  inhibition at 10 µM: -3%
[33]; ALK T1151_L1152insT, 10 μM
  % Inhibition mean: 3%
[33]; EGFR (ErbB1) d746-750, 10 μM
  % Inhibition mean: 2%
[33]; EGFR (ErbB1) d747-749 A750P, 10 μM
  % Inhibition mean: -6%
[33]; FLT3 ITD, 10 μM
  % Inhibition mean: -15%
[34]
  Liver microsome stability Cli, RLM: < 9.6 μL/min/mg protein
[34]; rat, liver microsomes
  half-life: > 2.42 h
